Test results reported in patent US12686689B2, “HPK1 inhibitor, preparation method therefor and use thereof” (WIGEN BIOMEDICINE TECHNOLOGY (SHANGHAI) CO., LTD., priority 2020, dated 2026).
pIC50: −log10 of the molar value.

biological target: HPK1 (Homo sapiens, UniProt Q92918); experiment: Inhibitory effect against enzyme activity of HPK1 (lantha Screen, PKC substrate); assay type: biochemical; conditions: class symbols defined as IC50 ranges, read-out: Inhibition rate (%)
Description: Example 130: Assay of Inhibitory Effect of Compound Against Enzyme Activity of HPK1
The inhibitory effect of the compound against the enzyme activity of HPK1 was determined by using a lantha Screen method with PKC as a substrate. The process comprises the following specific steps: the HPK1 protein was incubated with the serially-diluted compound at 28° C. for 10 min followed by addition of fluoroescein-labeled PKC substrate and ATP to react for 90 min. After termination of the reaction, a Terbium-labeled antibody against phosphorylated PKC was added and incubated for 60 min. The energy transfer of Teribium and fluoroscein was monitored by detecting luminescence at 520 nm and 450 nm to quantify PKC as the level of phosphorylation of […]. Inhibition % and IC50 of the compound were calculated compared to the control group.

Chain of HPK1 (Q92918 whole entry): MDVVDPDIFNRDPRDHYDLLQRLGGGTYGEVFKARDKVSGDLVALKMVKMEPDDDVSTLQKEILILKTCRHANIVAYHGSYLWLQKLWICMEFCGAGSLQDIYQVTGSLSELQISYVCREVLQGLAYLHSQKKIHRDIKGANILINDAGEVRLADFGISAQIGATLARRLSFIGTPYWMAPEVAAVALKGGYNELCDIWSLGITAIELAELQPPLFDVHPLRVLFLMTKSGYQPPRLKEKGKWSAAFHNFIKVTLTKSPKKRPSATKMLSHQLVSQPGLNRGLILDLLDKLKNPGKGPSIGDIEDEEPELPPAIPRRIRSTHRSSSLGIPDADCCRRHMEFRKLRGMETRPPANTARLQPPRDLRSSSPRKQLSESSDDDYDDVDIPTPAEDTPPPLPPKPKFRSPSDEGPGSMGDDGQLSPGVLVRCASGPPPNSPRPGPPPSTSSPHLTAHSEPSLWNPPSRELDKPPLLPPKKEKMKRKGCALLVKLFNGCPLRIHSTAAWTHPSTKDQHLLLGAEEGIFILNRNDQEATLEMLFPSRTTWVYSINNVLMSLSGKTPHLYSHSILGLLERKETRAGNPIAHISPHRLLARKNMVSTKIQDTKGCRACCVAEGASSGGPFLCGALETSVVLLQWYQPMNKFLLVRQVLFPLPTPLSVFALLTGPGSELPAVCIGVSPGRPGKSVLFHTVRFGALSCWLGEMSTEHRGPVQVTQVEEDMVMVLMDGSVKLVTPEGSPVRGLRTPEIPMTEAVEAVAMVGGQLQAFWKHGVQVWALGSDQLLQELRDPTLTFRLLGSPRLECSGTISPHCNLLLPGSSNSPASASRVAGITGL

SMILES	pIC50
COc1cccc(F)c1-c1cc2c(-c3ccc4c(c3)OCC3CN(C)CCN43)n[nH]c2cn1 (centres unmarked) [Compound 64]	≥ 8.00
CN1CCN2c3ccc(-c4n[nH]c5cc(C#N)c(-c6cccc(C(N)=O)c6F)cc45)cc3OCC2C1 (centres unmarked) [Compound 9]	≥ 8.00
CNCc1cc(C)c(-c2cc3c(-c4ccc5c(c4)OCC4CN(CC(F)(F)F)CCN54)n[nH]c3cc2C#N)c(F)c1 (centres unmarked) [Compound 128]	≥ 8.00
CN(C)CCN(C)C(=O)c1ccc(-c2n[nH]c3ncc(-c4ccc5c(c4)OCC4CN(C)CCN54)cc23)cc1 (centres unmarked) [Compound 117]	≥ 8.00
CNC(=O)c1cncc(-c2cc3c(-c4ccc5c(c4)OCC4CN(C)CCN54)n[nH]c3cc2C#N)c1 (centres unmarked) [Compound 46]	≥ 8.00
CN1CCN2c3ccc(-c4cnc5[nH]nc(-c6ccc(C(=O)N7CC(N(C)C)C7)cc6)c5n4)cc3OCC2C1 (centres unmarked) [Compound 118]	≥ 8.00
CN1CCN2c3ccc(-c4cnc5[nH]cc(-c6ccc(C(=O)N7CC8(COC8)C7)cc6)c5c4)cc3OCC2C1 (centres unmarked) [Compound 106]	≥ 8.00
CNCc1cc(F)c(-c2nc3c(-c4ccc5c(c4)OCC4CN(C)CCN54)n[nH]c3cc2C#N)c(F)c1 (centres unmarked) [Compound 84]	≥ 8.00
CNCc1cc(C)c(-c2ccc3[nH]cc(-c4ccc5c(c4)OCC4CN(C)CCN54)c3n2)c(F)c1 (centres unmarked) [Compound 101]	≥ 8.00
CN1CCN2c3ccc(-c4n[nH]c5cc(C#N)c(-c6c(F)cc(C7CCCCN7)cc6F)cc45)cc3OCC2C1 (centres unmarked) [Compound 23]	≥ 8.00
CN1CCN2c3ccc(-c4n[nH]c5cc(C#N)c(-c6cncnc6)cc45)cc3OCC2C1 (centres unmarked) [Compound 48]	≥ 8.00
COc1ccncc1-c1cc2c(-c3ccc4c(c3)OCC3CN(C)CCN43)n[nH]c2cc1C#N (centres unmarked) [Compound 44]	≥ 8.00
CN1CCN2c3ccc(-c4n[nH]c5cc(C#N)c(-c6ccn7cnnc7c6)cc45)cc3OCC2C1 (centres unmarked) [Compound 61]	≥ 8.00
CN1CCN2c3ccc(-c4n[nH]c5cc(C#N)c(-c6c(F)cc(OCc7ccncc7)cc6F)cc45)cc3OCC2C1 (centres unmarked) [Compound 32]	≥ 8.00
Cc1cccc(F)c1-c1cc2c(-c3ccc4c(c3)OCC3CN(C)CCN43)n[nH]c2cc1C#N (centres unmarked) [Compound 5]	7.00 to 8.00
COc1cccc(F)c1-c1ncc2[nH]nc(-c3ccc4c(c3)OCC3CN(C)CCN43)c2n1 (centres unmarked) [Compound 79]	7.00 to 8.00
CN1CCN2c3ccc(-c4n[nH]c5cc(C#N)c(-c6cccc7[nH]ncc67)cc45)cc3OCC2C1 (centres unmarked) [Compound 50]	≥ 8.00
CN1CCN2c3ccc(-c4n[nH]c5cc(C#N)c(-c6cccc(C(=O)NCc7ccncc7)c6F)cc45)cc3OCC2C1 (centres unmarked) [Compound 10]	≥ 8.00
CN1CCN2c3ccc(-c4cnc5[nH]cc(-c6ccc(C(=O)N7CC(N(C)C)C7)cc6)c5c4)cc3OCC2C1 (centres unmarked) [Compound 103]	≥ 8.00
CN1CCN2c3ccc(-c4n[nH]c5cc(C#N)c(-c6cnccn6)cc45)cc3OCC2C1 (centres unmarked) [Compound 49]	≥ 8.00
CNCc1cc(C)c(-c2ncc3[nH]nc(-c4ccc5c(c4)OCC4CN(C)CCN54)c3n2)c(F)c1 (centres unmarked) [Compound 80]	7.00 to 8.00
CN1CCN2c3ccc(-c4n[nH]c5cc(C#N)c(-c6c(F)cc(NC(=O)Cc7cccnc7)cc6F)cc45)cc3OCC2C1 (centres unmarked) [Compound 31]	7.00 to 8.00
CCN1CCN2c3ccc(-c4n[nH]c5cc(C#N)c(-c6c(C)cc(CNC)cc6F)cc45)cc3OCC2C1 (centres unmarked) [Compound 124]	≥ 8.00
CN1CCN2c3ccc(-c4n[nH]c5cc(C#N)c(-c6cccnc6)cc45)cc3OCC2C1 (centres unmarked) [Compound 41]	≥ 8.00
CN1CCN2c3ccc(-c4n[nH]c5cc(C#N)c(-c6c(F)cccc6F)cc45)cc3OCC2C1 (centres unmarked) [Compound 4]	7.00 to 8.00

SMILES	pIC50
CNCc1cc(C)c(-c2cc3c(-c4ccc5c(c4)OCC4CN(C)CCN54)c[nH]c3cn2)c(F)c1 (centres unmarked) [Compound 89]	≥ 8.00
CNCc1cc(C)c(-c2ncc3[nH]cc(-c4ccc5c(c4)OCC4CN(C)CCN54)c3n2)c(F)c1 (centres unmarked) [Compound 95]	≥ 8.00
CNCc1cc(F)c(-c2cc3c(-c4ccc5c(c4)OCC4CN(C)CCN54)n[nH]c3cn2)c(F)c1 (centres unmarked) [Compound 68]	≥ 8.00
CN1CCN2c3ccc(-c4n[nH]c5cc(C#N)c(-c6ccccc6F)cc45)cc3OCC2C1 (centres unmarked) [Compound 1, 5-(2-fluorophenyl)-3-(3-methyl-1,2,3,4,4a,5-hexahydrobenzo[b]pyrazino[1,2-d][1,4]oxazin-8-yl)-1H-indazole-6-carbonitrile]	≥ 8.00
CN1CCN2c3ccc(-c4n[nH]c5cc(C#N)c(-c6c(F)cc(C7CCCN7)cc6F)cc45)cc3OCC2C1 (centres unmarked) [Compound 22]	≥ 8.00
CN1CCN2c3ccc(-c4n[nH]c5cc(C#N)c(-c6c(F)cc(C7CCCC7N)cc6F)cc45)cc3OCC2C1 (centres unmarked) [Compound 26]	≥ 8.00
COc1cccc(F)c1-c1ccc2[nH]nc(-c3ccc4c(c3)OCC3CN(C)CCN43)c2n1 (centres unmarked) [Compound 85]	7.00 to 8.00
CNCc1cc(F)c(-c2ccc3[nH]cc(-c4ccc5c(c4)OCC4CN(C)CCN54)c3n2)c(F)c1 (centres unmarked) [Compound 102]	≥ 8.00
COc1c(F)ccc(F)c1-c1cc2c(-c3ccc4c(c3)OCC3CN(C)CCN43)n[nH]c2cn1 (centres unmarked) [Compound 75]	7.00 to 8.00
CNCc1cc(C)c(-c2cc3c(-c4ccc5c(c4)OCC4CN(C6CCN(C)CC6)CCN54)n[nH]c3cc2C#N)c(F)c1 (centres unmarked) [Compound 127]	≥ 8.00
CN1CCN2c3ccc(-c4n[nH]c5cc(C#N)c(-c6cccc(P(C)(C)=O)c6F)cc45)cc3OCC2C1 (centres unmarked) [Compound 12]	≥ 8.00
CN(C)CCN(C)C(=O)c1ccc(-c2c[nH]c3ncc(-c4ccc5c(c4)OCC4CN(C)CCN54)cc23)cc1 (centres unmarked) [Compound 105]	≥ 8.00
CN1CCN2c3ccc(-c4n[nH]c5cc(C#N)c(-c6cnc7ccnn7c6)cc45)cc3OCC2C1 (centres unmarked) [Compound 58]	≥ 8.00
CN1CCN2c3ccc(-c4n[nH]c5cc(C#N)c(-c6cnn7ccccc67)cc45)cc3OCC2C1 (centres unmarked) [Compound 62]	7.00 to 8.00
CN(C)CCCOc1ccc(-c2c[nH]c3ncc(-c4ccc5c(c4)OCC4CN(C)CCN54)cc23)cc1 (centres unmarked) [Compound 110]	≥ 8.00
Cc1ccncc1-c1cc2c(-c3ccc4c(c3)OCC3CN(C)CCN43)n[nH]c2cn1 (centres unmarked) [Compound 70]	≥ 8.00
CNCc1cc(C)c(-c2cc3c(-c4ccc5c(c4)OCC4CNCCN54)n[nH]c3cc2C#N)c(F)c1 (centres unmarked) [Compound 123]	≥ 8.00
CN1CC(CN(C)C(=O)c2ccc(-c3c[nH]c4ncc(-c5ccc6c(c5)OCC5CN(C)CCN65)cc34)cc2)C1 (centres unmarked) [Compound 107]	≥ 8.00
CN1CCN2c3ccc(-c4n[nH]c5cc(C#N)c(-c6c(F)cc(NC(=O)CN7CC8(COC8)C7)cc6F)cc45)cc3OCC2C1 (centres unmarked) [Compound 29]	≥ 8.00
CNCc1cc(C)c(-c2nc3c(-c4ccc5c(c4)OCC4CN(C)CCN54)n[nH]c3cc2C#N)c(F)c1 (centres unmarked) [Compound 83]	≥ 8.00
CN1CCN2c3ccc(-c4n[nH]c5cc(C#N)c(-c6ccc(-c7ccccn7)cc6F)cc45)cc3OCC2C1 (centres unmarked) [Compound 40]	7.00 to 8.00
CN1CCN2c3ccc(-c4n[nH]c5cc(C#N)c(-c6c(F)cc7c(c6F)CC(N)CC7)cc45)cc3OCC2C1 (centres unmarked) [Compound 39]	≥ 8.00
CN1CCN2c3ccc(-c4n[nH]c5cc(C#N)c(-c6cccn7ccnc67)cc45)cc3OCC2C1 (centres unmarked) [Compound 55]	≥ 8.00
CN1CCN2c3ccc(-c4cnc5[nH]cc(-c6ccc(OC7CCNCC7)cc6)c5c4)cc3OCC2C1 (centres unmarked) [Compound 109]	≥ 8.00
Cc1n[nH]cc1-c1cc2c(-c3ccc4c(c3)OCC3CN(C)CCN43)n[nH]c2cc1C#N (centres unmarked) [Compound 47]	≥ 8.00
